Source: patent US11571480B2, “Multi-ligand drug conjugates and uses thereof” (priority 2015, dated 2023)
Square brackets hold non-standard residues; d marks the D form. Peptide text beside a SMILES is read from it. * marks the point of attachment. Dolaproine = CO[C@@H]([C@@H]1CCCN1)[C@@H](C)C(=O)O; Dil = CC[C@H](C)[C@H](NC)[C@@H](CC(=O)O)OC; X1 = C[C@@H](N*)[C@@H](O)c1ccccc1; NMeV = CN[C@H](C(=O)O)C(C)C

Experiments:
[1] = tested on: chronic myeloid leukemia cell line K562; test: Cytotoxicity test of conjugate LDC10B; format: cell-based; settings: K562, Incubation Time 30 min
Method: (§1) Culture medium: RPMI 1640 Medium, no folic acid
(§2) 1) human nasopharyngeal cancer cell line KB, melanoma cell line A375, human lung cancer cell H1299, chronic myeloid leukemia cell line K562, human lung cancer cell H460, ovarian cancer cell SKOV3, breast cancer cell line HCC1954, human gastric cancer cell N87, and human breast cancer cell SK-BR-3 were incubated at 37° C., 5% CO2 in RPMI 1640 medium containing 10% fetal bovine serum, the cells were passaged every 2-3 days.
(§3) 2) human nasopharyngeal cancer cell line KB, melanoma cell line A375, human lung cancer cell H1299, chronic myeloid leukemia cell line K562, human lung cancer cell H460, ovarian cancer cell SKOV3, breast cancer cell line HCC1954, human gastric cancer cell N87, and human breast cancer cell SK-BR-3 were plated at 1×10^3 cells per well (96-well plate) and incubated for 8-12 h at 37° C., 5% CO2.
(§4) 3) Stock solutions of LDC conjugates or controls were prepared in PBS solution. 100 μL/well of serially diluted LDC conjugates or controls was added to the test cells in the plates and incubated for 15-30 min at 37° C., 5% CO2. The culture medium in the wells was then removed by aspiration and the test cells were incubated in fresh culture medium without conjugates (150 μL/well) for 2-3 days at 37° C., 5% CO2.
(§5) 4) CellTiter 96® Aqueous One Solution Cell Proliferation Assay (Promega) was added to each well to measure the amount of […] cells, and each plate was incubated in an incubator for 1 h at 37° C., 5% CO2.
(§6) 5) Each plate was read at 490 nm on a microplate reader, and the cell survivals were compared for test cells with or without the treatment of LDC conjugates. The LDC drug concentrations that are required for 50% cell death (IC50 values) were determined.

[2] = tested on: human breast cancer cell SK-BR-3; test: Cytotoxicity test of conjugate LDC10B; format: cell-based; settings: SK-BR-3, Incubation Time 30 min
Method: as §1, §2, §3, §4, §5, §6

[3] = tested on: human gastric cancer cell N87; test: Cytotoxicity test of conjugate LDC10B; format: cell-based; settings: N87, Incubation Time 30 min
Method: as §1, §2, §3, §4, §5, §6

[4] = tested on: human lung cancer cell H1299; test: Cytotoxicity test of conjugate LDC10B; format: cell-based; settings: H1299, Incubation Time 30 min
Method: as §1, §2, §3, §4, §5, §6

[5] = tested on: human lung cancer cell H460; test: Cytotoxicity test of conjugate LDC10B; format: cell-based; settings: H460, Incubation Time 30 min
Method: as §1, §2, §3, §4, §5, §6

[6] = tested on: human nasopharyngeal cancer cell line KB; test: Cytotoxicity test of conjugate LDC10B; format: cell-based; settings: Incubation Time 15 min
Method: as §1, §2, §3, §4, §5, §6

[7] = tested on: melanoma cell line A375; test: Cytotoxicity test of conjugate LDC10B; format: cell-based; settings: A375, Incubation Time 15 min
Method: as §1, §2, §3, §4, §5, §6

[8] = tested on: ovarian cancer cell SKOV3; test: Cytotoxicity test of conjugate LDC11B; format: cell-based, human; settings: SKOV3, incubated 15-30 min, then 2-3 days
Method: as §1
1) human lung cancer cell H460, ovarian cancer cell SKOV3, human embryonic kidney cell 293A were incubated at 37° C., 5% CO2 in RPMI 1640 medium containing 10% fetal bovine serum, the cells were passaged every 2-3 days.
2) human lung cancer cell H460, ovarian cancer cell SKOV3, human embryonic kidney cell 293A were plated at 1×10^3 cells per well (96-well plate) and incubated for 8-12 h at 37° C., 5% CO2.
as §4, with “control” for “controls”, “the” for “the test”, “plate” for “plates”
(§7) 4) CellTiter 96® Aqueous One Solution Cell Proliferation Assay (Promega) was added to each well to measure the amount of […] cells, and the plate was incubated in an incubator for 1 h at 37° C., 5% CO2.
5) The plate was read at 490 nm on a microplate reader, and the cell survivals were compared for cells with or without the treatment of LDC conjugates. The LDC drug concentrations that are required for 50% cell death (IC50 values) were determined.

[9] = tested on: human gastric cancer cell line GTL-16; test: Cytotoxicity test of conjugate LDC13B; format: cell-based; settings: GTL-16, incubated 15-30 min, then 2-3 days
[10] = tested on: breast cancer cell line HCC1954; test: Cytotoxicity test of conjugate LDC10H; format: cell-based, human; settings: HCC1954, incubated 15-30 min, then 2-3 days
Method: as §1
(§8) 1) human lung cancer cell H1299, ovarian cancer cell SKOV3, breast cancer cell line HCC1954, and human lung cancer cell H460 were incubated at 37° C., 5% CO2 in RPMI 1640 medium containing 10% fetal bovine serum, the cells were passaged every 2-3 days.
(§9) 2) human lung cancer cell H1299, ovarian cancer cell SKOV3, breast cancer cell line HCC1954, and human lung cancer cell H460 were plated at 1×10^3 cells per well (96-well plate) and incubated for 8-12 h at 37° C., 5% CO2.
as §4, with “control” for “controls”, “the” for “the test”, “plate” for “plates”
as §7
(§10) 5) the plate was read at 490 nm on a microplate reader, and the cell survivals were compared for cells with or without the treatment of LDC conjugates. The LDC drug concentrations that are required for 50% cell death (IC50 values) were determined.

[11] = tested on: ovarian cancer cell SKOV3; test: Cytotoxicity test of conjugate LDC10H; format: cell-based, human; settings: SKOV3, incubated 15-30 min, then 2-3 days
Method: as §1, §8, §9
as §4, with “control” for “controls”, “the” for “the test”, “plate” for “plates”
as §7, §10

[12] = tested on: human lung cancer cell H460; test: Cytotoxicity test of conjugate LDC1013; format: cell-based; settings: H460, incubated 15-30 min, then 2-3 days
Method: as §1
(§11) 1) human nasopharyngeal cancer cell line KB, melanoma cell line A375, and human lung cancer cell H460 were incubated at 37° C., 5% CO2 in RPMI 1640 medium containing 10% fetal bovine serum, the cells were passaged every 2-3 days.
(§12) 2) human nasopharyngeal cancer cell line KB, melanoma cell line A375, and human lung cancer cell H460 were plated at 1×10^3 cells per well (96-well plate) and incubated for 8-12 h at 37° C., 5% CO2.
as §4, with “control” for “controls”, “the” for “the test”, “plate” for “plates”
as §7, §10

[13] = tested on: human nasopharyngeal cancer cell line KB; test: Cytotoxicity test of conjugate LDC1013; format: cell-based; settings: incubated 15-30 min, then 2-3 days
Method: as §1, §11, §12
as §4, with “control” for “controls”, “the” for “the test”, “plate” for “plates”
as §7, §10

[14] = tested on: melanoma cell line A375; test: Cytotoxicity test of conjugate LDC1013; format: cell-based; settings: A375, incubated 15-30 min, then 2-3 days
Method: as §1, §11, §12
as §4, with “control” for “controls”, “the” for “the test”, “plate” for “plates”
as §7, §10

[15] = tested on: human lung cancer cell H460; test: Cytotoxicity test of conjugate LDC10BR; format: cell-based; settings: H460, incubated 15-30 min, then 2-3 days
Method: as §1, §11, §12
as §4, with “control” for “controls”, “the” for “the test”, “plate” for “plates”
as §7, §10

`CC[C@H](C)[C@@H]([C@@H](CC(=O)N1CCC[C@H]1[C@H](OC)[C@@H](C)C(=O)N[C@H](C)[C@@H](O)c1ccccc1)OC)N(C)C(=O)[C@@H](NC(=O)[C@@H](NC)C(C)C)C(C)C` [MMAE] (H-[NMeV]V[Dil][Dolaproine]-X1) was tested, and the IC50 [1] was 540 pM, the IC50 [2] was 520 pM and the IC50 [3] was 680 pM. The IC50 [4] was 860 pM, the IC50 [5] was 770 pM and the IC50 [6] was 89000 pM. It also gave an IC50 [7] of 100000 pM, an IC50 [8] of 440 pM and an IC50 [9] of 6380 pM. It also gave an IC50 [10] of 290 pM, an IC50 [11] of 490 pM and an IC50 [12] of 37000 pM. It also gave an IC50 [13] of 20000 pM, an IC50 [14] of 85000 pM and an IC50 [15] of 37000 pM.
